Data as given in publication PMC5556071, “ATR inhibition facilitates targeting of leukemia dependence on convergent nucleotide biosynthetic pathways” (Nature Communications, 2017).
Where “and” joins values, the source holds several entries; their conditions need not be identical. Equal values may be shown once.

Tested on: CEM cells
Experiment: Non-targeted LC-MS metabolite profiling: percent [13C6]glucose labeling and relative metabolite levels
Assay type: cell-based, human
Settings: CEM cells, 12 h following release from G1 arrest, replicates #1-#6
Excerpt: To further investigate the functions of dCK and ATR at the G1/S transition in CEM cells, a non-targeted liquid chromatography mass spectrometry (LC-MS) assay was used to determine the utilization of labeled [^13C6]glucose and [^13C9,^15N3]deoxycytidine, the main substrates for de novo and salvage nucleotide biosynthesis, respectively. Of the 166 metabolites identified in CEM cells treated with VE-822 and/or dCKi, 105 metabolites found in all four treatment groups contained glucose-derived ^13C atoms. […] These metabolites included intermediates such as rUTP, rCTP and rCDP in the de novo dCTP biosynthesis (Fig. 1d). […] However, several deoxyribonucleotides, including dCTP, were below the limit of detection of the non-targeted LC-MS approach, raising the concern that the sensitivity of this assay is not sufficient to measure the contribution of the salvage pathway or the ratio of de novo and salvage biosynthesis to these pools. To address this problem, a newly developed targeted MS assay was developed (Fig. 1e and Supplementary Fig. 3). In this assay, samples containing either extracted dNTPs or hydrolyzed DNA from labeled cells are separated by LC for detection by a triple quadrupole mass spectrometer using multiple reaction monitoring (LC-MS/MS-MRM). The first (Q1) and third (Q3) quadrupoles function as mass filters, while the second (Q2) quadrupole serves as a collision chamber (Fig. 1e). For instance, to profile the biosynthetic composition of deoxycytidine (dC) derived from hydrolyzed DNA or dCTP, an intact, protonated dC ion is selected in Q1, followed by fragmentation of the glycosidic bond, which releases protonated cytosine in Q2, that is filtered in Q3 and detected to generate an ion chromatogram. The peak areas for the ion chromatograms of salvage [^13C9,^15N3]dC (red trace), de novo [^13C5]dC (black trace, from [^13C6]glucose) and unlabeled dC (gray trace) (Fig. 1e) are used to determine the relative contributions of the de novo and salvage routes both to dCTP pools and to DNA-incorporated dCTP.
Cells were transferred into RPMI-1640 without glucose and supplemented with 10% dialyzed FBS (Gibco) containing the following labeled substrates: precursors for de novo [U-^13C6]glucose (Sigma-Aldrich, 389374) at 11 mM; precursors for purine salvage [U-^13C10,^15N5]dA (Cambridge Isotopes, CIL 3896), [^15N5]dA (Cambridge Isotopes, NLM-3895) and [^15N5]dG (Cambridge Isotopes, NLM-3899) at 5 µM or as indicated; and precursors for pyrimidine salvage: [U-^13C9,^15N3]dC (Silantes, 124603602) and [U-^13C10,^15N2]dT (Cambridge Isotopes, CNLM-3902) at 5 µM and [^15N2]orotate (Cambridge Isotopes, NLM-1048) at indicated concentrations. The cells were incubated for 12 h or as indicated before sample collection and processing. […]
Non-targeted LC-MS metabolic assays. 1 x 10^6 cells were washed with ice-cold 150 mM ammonium acetate twice before adding 1 mL of ice-cold 80% methanol with 10 nM norvaline as an internal standard. After vigorous vortexing, samples were centrifuged at maximum speed, the aqueous layer was transferred to a glass vial and the metabolites were dried under vacuum. Metabolites were resuspended in 50 μL 70% acetonitrile (ACN) and 5 μL of this solution used for the mass spectrometer-based analysis. The analysis was performed on a Q Exactive (Thermo Scientific) in polarity-switching mode with positive voltage 4.0 kV and negative voltage 4.0 kV. The mass spectrometer was coupled to an UltiMate 3000RSLC (Thermo Scientific) UHPLC system. Mobile phase A was 5 mM ammonium acetate (NH4AcO), pH 9.9, B was acetonitrile and the separation achieved on a Luna […] NH2 100 A column (150 × 2.0 mm, Phenomenex). The flow was 200 μL/min, and the gradient ran from 15% A to 95% A in 18 min, followed by an isocratic step for 9 min and re-equilibration for 7 min. Metabolites were detected and quantified as area under the curve based on retention time and accurate mass (≤ 3 p.p.m.) using the TraceFinder 3.1 (Thermo Scientific). Relative amounts of […]

[1] = metabolite CDP (KEGG C00112), listed as D
[2] = metabolite CDP-EtA (KEGG C00570), listed as D
[3] = metabolite CMP (KEGG C00055), listed as D
[4] = metabolite CTP (KEGG C00063), listed as D
[5] = metabolite Choline (KEGG C00114), listed as D
[6] = metabolite Cinnamic acid (KEGG C00423), listed as D
[7] = metabolite Cit (KEGG C00158), listed as D
[8] = metabolite Creatine (KEGG C00300), listed as D
[9] = metabolite Creatinine (KEGG C00791), listed as D
[10] = metabolite Cytosine (KEGG C00380), listed as D
[11] = metabolite DMG (KEGG C01026), listed as D
[12] = metabolite Dihydroorotate (KEGG C00337), listed as D
[13] = metabolite F16BP (KEGG C00354), listed as D
[14] = metabolite Folate (KEGG C00504), listed as D
[15] = metabolite Fru (KEGG C00095), listed as D
[16] = metabolite Fum (KEGG C00122), listed as D
[17] = metabolite G (KEGG C00387), listed as D
[18] = metabolite dG (KEGG C00330), listed as D

## COc1ccc(-c2nc([C@@H](C)Sc3nc(N)cc(N)n3)c(C)s2)cc1OCCNS(C)(=O)=O [dCKi]
[1]
  Glucose labeling of CDP: 77.96% and 72.97% and 80.28% and 0.44% and 79.17% and 76.50%
  Relative level of CDP: 0.5 and 1.3 and 2.1 and 0.0678 and 0.334 and 0.7
[2]
  Glucose labeling of CDP-EtA: 70.01% and 72.58% and 83.31% and 72.60% and 75.82% and 67.23%
  Relative level of CDP-EtA: 0.9 (4×) and 1.4 and 1.0
[3]
  Glucose labeling of CMP: 71.05% and 65.79% and 64.24% and 62.92% and 70.94% and 75.98%
  Relative level of CMP: 1.0 and 0.663 and 1.8 and 0.2 and 0.366 and 0.8
[4]
  Glucose labeling of CTP: 81.19% and 79.64% and 75.43% and 84.05% and 71.54% and 81.90%
  Relative level of CTP: 0.345 and 0.9 and 1.2 and 0.0446 and 0.234 and 0.445
[5]
  Glucose labeling of Choline: 0.00256% and 0.00252% and 0.00247% (2×) and 0.00241% and 0.00245%
  Relative level of Choline: 1.1 and 1.3 (2×) and 0.842 and 0.8 (2×)
[6]
  Glucose labeling of Cinnamic acid: 0.00% (5×) and 1.11e-14%
  Relative level of Cinnamic acid: 1.2 and 1.3 and 1.6 and 0.8 (2×) and 0.7
[7]
  Glucose labeling of Cit: 50.63% and 52.82% and 53.30% and 41.63% and 44.16% and 45.64%
  Relative level of Cit: 0.8 and 1.3 and 1.4 and 0.367 and 0.6 and 0.7
Metabolite Citraconic acid (KEGG C02226)
  Glucose labeling of Citraconic acid: 0.00%
Metabolite Citraconic acid (KEGG C02226), listed as D
  Relative level of Citraconic acid: 1.1 and 1.0 (2×) and 1.3 and 0.645 and 0.9
Metabolite Citrulline (KEGG C00327)
  Glucose labeling of Citrulline: 0.18%
Metabolite Citrulline (KEGG C00327), listed as D
  Relative level of Citrulline: 2.2 and 0.259 and 0.529 and 0.8 and 0.4 and 0.527
[8]
  Glucose labeling of Creatine: 0.000817% and 0.00101% and 2.36e-6% and 0.000311% and 0.000285% and 0.000183%
  Relative level of Creatine: 1.0 (4×) and 1.1 (2×)
[9]
  Glucose labeling of Creatinine: 0.000768% and 0.000756% and 0.000758% and 0.000811% and 0.00078% and 0.000884%
  Relative level of Creatinine: 1.2 and 0.952 and 1.0 (2×) and 0.8 and 0.9
Metabolite Cystathionine (KEGG C02291)
  Glucose labeling of Cystathionine: 0.26%
Metabolite Cystathionine (KEGG C02291), listed as D
  Relative level of Cystathionine: 1.9 (2×) and 1.8 and 0.9 and 0.634 and 0.644
[10]
  Glucose labeling of Cytosine: 0.000526% and 0.000773% and 0.000656% and 0.000291% and 0.000873% and 0.0323%
  Relative level of Cytosine: 1.6 and 0.8 and 1.1 (2×) and 1.4 and 2.5
Metabolite DHAP (KEGG C00111)
  Glucose labeling of DHAP: 100.00%
  Relative level of DHAP: 0.162
[11]
  Glucose labeling of DMG: 0.05% and 0.06% and 0.000349% and 0.02% and 0.0219% and 0.03%
  Relative level of DMG: 1.0 (2×) and 1.3 (2×) and 1.4 and 1.1
[12]
  Glucose labeling of Dihydroorotate: 2.31% and 4.79% and 3.17% and 1.21% and 1.28% and 0.88%
  Relative level of Dihydroorotate: 1.8 and 2.4 and 1.6 and 0.556 and 0.665 and 0.641
[13]
  Glucose labeling of F16BP: 45.03% and 62.70% and 85.32% and 37.47% and 50.53% and 49.36%
  Relative level of F16BP: 0.184 and 0.186 and 0.7 and 0.137 and 0.132 and 0.115
[14]
  Glucose labeling of Folate: 100.00% and 0.00% (4×) and 1.11e-14%
  Relative level of Folate: 1.8 and 6.1 and 0.8 and 0.376 and 0.9
[15]
  Glucose labeling of Fru: 17.52% and 38.15% and 34.20% and 21.41% and 18.03% and 26.54%
  Relative level of Fru: 1.5 and 0.6 and 0.8 and 1.0 and 1.4 and 0.9
[16]
  Glucose labeling of Fum: 15.19% and 16.91% and 18.53% and 8.92% and 13.71% and 14.45%
  Relative level of Fum: 0.9 and 1.0 and 1.4 and 0.443 and 0.654 and 0.7
[17]
  Glucose labeling of G: 100.00% (3×) and 0.55% (3×)
  Relative level of G: 1.4 and 0.8 and 0.9
Metabolite dATP (KEGG C00131)
  Glucose labeling of dATP: 100.00%
Metabolite dATP (KEGG C00131), listed as D
  Relative level of dATP: 0.743 and 1.0
Metabolite dCTP (KEGG C00458)
  Glucose labeling of dCTP: 100.00%
Metabolite dCTP (KEGG C00458), listed as D
  Relative level of dCTP: 1.0 and 0.8 and 1.2
[18]
  Glucose labeling of dG: 0.40% and 0.52% and 0.55% and 0.48% and 0.47% and 0.42%
  Relative level of dG: 1.5 and 0.9 (2×) and 1.1 and 0.8 (2×)
Metabolite dGDP (KEGG C00361)
  Glucose labeling of dGDP: 100.00%
  Relative level of dGDP: 0.0
Metabolite dTMP (KEGG C00364)
  Glucose labeling of dTMP: 100.00%
Metabolite dTMP (KEGG C00364), listed as D
  Relative level of dTMP: 1.6 (2×) and 1.0 and 2.4
Metabolite dTTP (KEGG C00459)
  Glucose labeling of dTTP: 100.00%
Metabolite dTTP (KEGG C00459), listed as D
  Relative level of dTTP: 1.6 and 3.4 and 1.3
  Glucose labeling, Lys: 0.00%
  Glucose labeling, NAD+: 0.00%
  Glucose labeling, Nicotinamide: 0.00%
  Glucose labeling, P-Creatine: 0.0737%
  Glucose labeling, P-EtA: 0.0123%
  Glucose labeling, PEP: 100.00%
  Glucose labeling, Phe: 0.00%
  Glucose labeling, Pipecolate: 0.00%
  Glucose labeling, Pyr: 100.00%
  Glucose labeling, Thr (C00188): 0.00%
  Glucose labeling, Trigonelline (C01004): 0.00%
